Experiment [1] has as its system Human hepatocellular carcinoma HuH7 cells. In words: Transfection of adherent HuH7 cells in culture with pCMVβ plasmid, β-galactosidase activity. Format: cell-based. The settings on record: HuH7 lysate; 0.5 μg pCMVβ plasmid + 0.5 μg tri-galactosyl-lysyl-lysyl aminopentyl spermidine + 2.5 μg cholesteryl-oxycarbonyl aminopentyl spermidine in 100 μL Optimem; after 30 min. How it is done: Human hepatocellular carcinoma HuH7 cells were grown and seeded into a 96 well plate with 1-2×10^4 cells in 100 μL of minimal essential media α, modification with 10% serum. The plates were incubated in a 37° CO2 incubator until the cells were 60-80% confluent (approximately 24 hrs). The media was removed and the cells washed once with Optimem® (serum free media). Optimem® (100 μL) containing 0.5 μg of pCMVβ plasmid (from Clonetech, No. 6177-1), 0.5 μg of N^4-(5-[N^2,N^6-bis(β-3′-propionyl galactosyl-β1-4-thioglucoside)lysyl-N^6-(β-3′-propionyl galactosyl-β1-4-thioglucoside)lysyl]aminopentyl)-spermidine and 2.5 μg of N^4-(5-cholestene-3′β-oxycarbonyl)-aminopentyl)spermidine was added to the cells. The cells were incubated with the mixture for 4 hrs in a 37° CO2 incubator; thereafter 100 μL of media containing 20% serum was added and the incubation continued for an additional 20 hrs. Cells lysed with 0.5% NP-40 in 140 mM NaCl, 10 mM tris, 1.5 mM MgCl2 were assayed for β-galactosidase activity using o-nitrophenyl β-D-galactopyranoside, and gave A405=1.35 after 30 min. Cells grown in 6 well plates (25 mm diameter) and treated similarly were fixed with 2% paraformaldehyde and assayed for β-galactosidase activity using 5-bromo-4-chloro-3-indolyl β-D-galactopyranoside (J. Sambrook, et al., Molecular Cloning: A Laboratory Manual, Cold Spring Harbor, 1989).

In another experiment the test system is Liver Cells. Description: Transfection of liver cells in vivo with pHBVSA plasmid, serum hepatitus B surface antigen immunoassay. More on the design: species or system BALB-C mice. The settings on record: 10 μg pHBVSA plasmid + 5 μg tri-galactosyl compound + 25 μg cholesteryl compound in 100 μL PBS, tail vein; 48 hrs post-injection; example in present tense. How it is done:
[…] The plasmid solution (100 μL) is injected into the tail vein of 6-12 week old BALB-C mice. The mice are sacrificed 48-120 hrs later and the serum tested for hepatitus B surface antigen using a commercial enzyme-linked immunoassay.

The next experiment relates to Muscle Cells. In words: Transfection of muscle cells in vivo with pCMVβ plasmid, β-galactosidase staining of quadriceps. More on the design: species or system BALB-C mice. The settings on record: 100 μg pCMVβ plasmid + 100 μg compound in 100 μL PBS, injected into rear quadriceps, approx. 96 hrs; control plasmid in 0.25% bupivicaine hydrochloride. How it is done:
Solutions were prepared containing 100 μg of pCMVβ plasmid and 100 μg of either N^4-octylspermidine, N^4-dodecylspermidine or N^4-(5-cholestene-3′β-oxycarbonyl)aminopentyl)spermidine, each in 100 μL of phosphate buffered saline. The plasmid solution (100 μL) was injected into the rear quadriceps of 6-12 week old BALB-C mice. The mice were sacrificed approximately 96 hrs later and the entire quadriceps muscle tissue was removed. The muscle was fixed with formalin for 2 hrs, and assayed for β-galactosidase activity using 5-bromo-4-chloro-3-indolyl-β-D-galactopyranoside (1 mg/mL in tris/EDTA pH 8.5). All three injections were scored as positive since the blue color was more intense than the control: injection of 100 μg of pCMVβ plasmid injected in 100 μL of 0.25% bupivicaine hydrochloride in citrate buffer pH 6.0.

For “4-[(N^2-[N^2,N^6-bis(3-[4-O(β-D-galactopyranosyl)-β-D-glucopyranosylthio]propionyl)lysyl]N^6-(3-[4-O-(β-D-galactopyranosyl)-β-D-glucopyranosylthio]-propionyl)lysinamido)pentyl]-1,8-diamino-4-azaoctane, acetate salt”, the “β-galactosidase activity using o-nitrophenyl β-D-galactopyranoside, A405” value in experiment [1] was 1.35. In addition, the “production of hepatitus B surface antigen in serum” value with Liver Cells is “greater than the positive control”.

`CC(C)CCC[C@@H](C)[C@H]1CC[C@H]2[C@@H]3CC=C4C[C@@H](OC(=O)NCCCCCN(CCCN)CCCCN)CC[C@]4(C)[C@H]3CC[C@]12C.Cl` [N^4-(5-cholestene-3′β-oxycarbonyl)aminopentyl spermidine hydrochloride Salt]: the “β-galactosidase activity using o-nitrophenyl β-D-galactopyranoside, A405” value in experiment [1] is given as 1.35. For the same compound, the “β-galactosidase staining of quadriceps muscle, score versus control” value in the experiment with Muscle Cells is “positive”. In addition, the “production of hepatitus B surface antigen in serum” value with Liver Cells was “greater than the positive control”.

In the case of `CCCCCCCCCCCCN(CCCN)CCCCN.Cl.Cl.Cl` [N^4-dodecylspermidine, N^4-dodecylspermidine trihydrochloride], the “β-galactosidase staining of quadriceps muscle, score versus control” value in the experiment with Muscle Cells is recorded as “positive”.

Turning to N^4-octylspermidine, the “β-galactosidase staining of quadriceps muscle, score versus control” value in the experiment on Muscle Cells is reported as “positive”.
